Data published in patent US20230041743A1, “1,8-NAPHTHYRIDIN-2-ONE COMPOUNDS FOR THE TREATMENT OF AUTOIMMUNE DISEASE” (Hoffmann-La Roche Inc., priority 2019, published 2023).

Target: T1, hERG channel (Homo sapiens, UniProt Q12809)
T1 construct: expressed in transfected cells; host or cells: CHO (Chinese hamster ovary), CHOhERG
Test: hERG channel inhibition assay (patch-clamp, CHOhERG cells)
Format: cell-based
Settings: whole-cell patch-clamp; for IC20: human, CHO cells stably expressing hERG (CHOhERG)
Method: hERG Channel Inhibition Assay
The hERG K^+ channels were cloned in humans and stably expressed in a CHO (Chinese hamster ovary) cell line. CHOhERG cells were used for patch-clamp (voltage-clamp, whole-cell) experiments. Cells were stimulated by a voltage pattern to activate hERG channels and conduct IKhERG Currents (rapid delayed outward rectifier potassium current of the hERG channel). After the cells were stabilized for a few minutes, the amplitude and kinetics of IKhERG were recorded at a stimulation frequency of 0.1 Hz (6 bpm). Thereafter, the test compound was added to the preparation at increasing concentrations. For each concentration, an attempt was made to reach a steady-state effect, usually, this was achieved within 3-10 min at which time the next highest concentration was applied. The amplitude and kinetics of IKhERG are recorded in each concentration of the drug which were compared to the control values (taken as 100%). (references: Redfern W S, Carlsson L, Davis A S, Lynch W G, MacKenzie I, Palethorpe S, Siegl P K, Strang I, Sullivan A T, Wallis R, Camm A J, Hammond T G. 2003; Relationships between preclinical cardiac electrophysiology, clinical QT interval prolongation and torsade de pointes for a broad range of drugs: evidence for a provisional safety margin in drug development. Cardiovasc. Res. 58:32-45, Sanguinetti M C, Tristani-Firouzi M. 2006; hERG potassium channels and cardiac arrhythmia. Nature 440:463-469, Webster R, Leishman D, Walker D. 2002; Towards a drug concentration effect relationship for QT prolongation and torsades de pointes. Curr. Opin. Drug Discov. Devel. 5:116-26).

T1 sequence (Q12809 whole entry): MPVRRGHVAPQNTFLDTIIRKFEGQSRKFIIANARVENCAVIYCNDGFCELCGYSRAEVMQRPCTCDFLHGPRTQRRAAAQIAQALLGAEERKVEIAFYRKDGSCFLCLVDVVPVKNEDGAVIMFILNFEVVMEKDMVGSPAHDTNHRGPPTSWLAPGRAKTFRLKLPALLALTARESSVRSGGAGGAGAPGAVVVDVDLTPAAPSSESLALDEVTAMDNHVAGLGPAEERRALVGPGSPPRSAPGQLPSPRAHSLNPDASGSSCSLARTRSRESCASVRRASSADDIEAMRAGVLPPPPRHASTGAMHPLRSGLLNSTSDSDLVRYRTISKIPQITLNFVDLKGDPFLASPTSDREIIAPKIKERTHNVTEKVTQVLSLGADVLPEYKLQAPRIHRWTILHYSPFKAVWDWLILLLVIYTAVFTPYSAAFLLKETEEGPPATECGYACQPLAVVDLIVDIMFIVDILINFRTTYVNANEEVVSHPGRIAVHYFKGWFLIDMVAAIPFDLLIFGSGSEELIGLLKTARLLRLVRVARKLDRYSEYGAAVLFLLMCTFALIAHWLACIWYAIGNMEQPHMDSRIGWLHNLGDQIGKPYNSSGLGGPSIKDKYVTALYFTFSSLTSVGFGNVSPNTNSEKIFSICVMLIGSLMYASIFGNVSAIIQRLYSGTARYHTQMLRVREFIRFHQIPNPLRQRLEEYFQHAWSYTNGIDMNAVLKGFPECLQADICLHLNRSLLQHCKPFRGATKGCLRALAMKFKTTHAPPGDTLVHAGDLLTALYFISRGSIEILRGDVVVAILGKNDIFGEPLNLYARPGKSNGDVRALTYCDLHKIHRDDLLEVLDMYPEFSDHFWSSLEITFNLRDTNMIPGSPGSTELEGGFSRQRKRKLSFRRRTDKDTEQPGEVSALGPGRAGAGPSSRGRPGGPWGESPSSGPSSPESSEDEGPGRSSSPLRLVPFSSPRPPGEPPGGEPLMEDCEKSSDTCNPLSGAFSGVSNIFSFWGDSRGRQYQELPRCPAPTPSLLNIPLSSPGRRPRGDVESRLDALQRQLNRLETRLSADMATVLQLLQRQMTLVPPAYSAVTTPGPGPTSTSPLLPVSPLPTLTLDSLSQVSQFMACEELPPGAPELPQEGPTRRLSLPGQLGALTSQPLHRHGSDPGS

## C[C@@H]1CN(c2cc(=O)n(C)c3ncccc23)C[C@@H]2c3ccc(N4CC5(CN(C)C5)C4)cc3CN12 [Example 2, 4-[(4R,10bS)-4-methyl-8-(6-methyl-2,6-diazaspiro[3.3]heptan-2-yl)-3,4,6,10b-tetrahydro-1H-pyrazino[2,1-a]isoindol-2-yl]-1-methyl-1,8-naphthyridin-2-one]
  IC20: > 10 µM
  IC50: > 20 µM

## CO[C@@H]1CN(c2ccc3c(c2)CN2[C@H](C)CN(c4cc(=O)n(C)c5ncccc45)C[C@H]32)C[C@H]1N [Example 5, 4-[(4R,10bS)-8-[(3R,4R)-3-amino-4-methoxy-pyrrolidin-1-yl]-4-methyl-3,4,6,10b-tetrahydro-1H-pyrazino[2,1-a]isoindol-2-yl]-1-methyl-1,8-naphthyridin-2-one]
  IC20: > 10 µM
  IC50: > 20 µM

## C[C@@H]1CN(c2cc(=O)n(C)c3ncccc23)C[C@@H]2c3ccc(N4CCN[C@@H](C)C4)cc3CN12 [Example 13, 4-[(4R,10bS)-4-methyl-8-[(3S)-3-methylpiperazin-1-yl]-3,4,6,10b-tetrahydro-1H-pyrazino[2,1-a]isoindol-2-yl]-1-methyl-1,8-naphthyridin-2-one]
  IC20: 7.2 µM
  IC50: > 20 µM

## C[C@@H]1CN(c2ccc3c(c2)CN2[C@H](C)CN(c4cc(=O)n(C)c5ncccc45)C[C@H]32)CCN1 [Example 14, 4-[(4R,10bS)-4-methyl-8-[(3R)-3-methylpiperazin-1-yl]-3,4,6,10b-tetrahydro-1H-pyrazino[2,1-a]isoindol-2-yl]-1-methyl-1,8-naphthyridin-2-one]
  IC20: > 10 µM
  IC50: > 20 µM

## C[C@@H]1CN(c2cc(=O)n(C)c3ncccc23)C[C@@H]2c3ccc(N4CCC[C@](C)(N)C4)cc3CN12 [Example 15, 4-[(4R,10bS)-8-[(3S)-3-amino-3-methyl-1-piperidyl]-4-methyl-3,4,6,10b-tetrahydro-1H-pyrazino[2,1-a]isoindol-2-yl]-1-methyl-1,8-naphthyridin-2-one]
  IC20: > 10 µM
  IC50: > 20 µM

## C[C@@H]1CN(c2cc(=O)n(C)c3ncccc23)C[C@@H]2c3ccc(N4CCC(C)(N)CC4)cc3CN12 [Example 18, 4-[(4R,10bS)-8-(4-amino-4-methyl-1-piperidyl)-4-methyl-3,4,6,10b-tetrahydro-1H-pyrazino[2,1-a]isoindol-2-yl]-1-methyl-1,8-naphthyridin-2-one]
  IC20: > 10 µM
  IC50: > 20 µM

## C[C@@H]1CN(c2cc(=O)n(C)c3ncccc23)C[C@@H]2c3ccc(N4C[C@@H]5C[C@H]4CN5)cc3CN12 [Example 19, 4-[(4R,10bS)-8-[(1S,4S)-2,5-diazabicyclo[2.2.1]heptan-2-yl]-4-methyl-3,4,6,10b-tetrahydro-1H-pyrazino[2,1-a]isoindol-2-yl]-1-methyl-1,8-naphthyridin-2-one]
  IC20: > 10 µM
  IC50: > 20 µM

## C[C@@H]1CN(c2cc(=O)n(C)c3ncccc23)C[C@@H]2c3ccc(N4CCOC[C@H](N)C4)cc3CN12 [Example 22, 4-[(4R,10bS)-8-[(6R)-6-amino-1,4-oxazepan-4-yl]-4-methyl-3,4,6,10b-tetrahydro-1H-pyrazino[2,1-a]isoindol-2-yl]-1-methyl-1,8-naphthyridin-2-one]
  IC20: > 10 µM
  IC50: > 20 µM

## C[C@@H]1CN(c2cc(=O)n(C)c3ncccc23)C[C@@H]2c3ccc(C4CCNCC4)cc3CN12 [Example 24, 4-[(4R,10bS)-4-methyl-8-(4-piperidyl)-3,4,6,10b-tetrahydro-1H-pyrazino[2,1-a]isoindol-2-yl]-1-methyl-1,8-naphthyridin-2-one]
  IC20: > 10 µM
  IC50: > 20 µM
